In publication PMC7906020, “Trp-Containing Antibacterial Peptides Impair Quorum Sensing and Biofilm Development in Multidrug-Resistant Pseudomonas aeruginosa and Exhibit Synergistic Effects With Antibiotics” (Frontiers in Microbiology, 2021):
“And” between values parts separate entries of the source, which are not always exact repeats. Identical values can stand only once. Like-named read-outs stand apart in the source and are kept apart here.

Key:
[1] = tested on: MRPA0108; test: Checkerboard assay (FICI) of peptides with antibiotics; assay type: cell-based, Pseudomonas aeruginosa; conditions: MRPA0108, 24 h 37°C, median of at least three experiments, synergy ≤ 0.5, additive 0.5-1, indifference 1-2
Experimental: The synergistic effect of peptides and antibiotics was evaluated using the checkerboard method, in which the fractional inhibitory concentration index (FICI) was used to analyze the type of interaction between compounds ([Berditsch et al., 2015]). A 100 μl inoculum of 10^5 CFU/ml planktonic bacteria was added to the respective wells of 96-well microtiter plates, and then serial dilutions of peptide and antibiotic at 100 μl volumes were added to each well and incubated at 37°C for 24 h. The OD 600 nm value was measured with a microplate plate reader (Varioskan Flash Microplate Reader, Thermo Fisher Scientific Co., Beijing) as an indicator of growth inhibition. The resulting checkerboard contained each combination of peptide and antibiotic in 9 doubly increasing concentrations, with wells containing the highest concentration of each antibiotic at opposite corners. The concentrations tested for every combination of peptide-antibiotic were their respective MICs. MH medium and the peptide/antibiotic combination served as negative and positive controls, respectively. The FICI is calculated as FICa plus FICb, where FICa is the MIC of the peptide in the presence of antibiotics/the MIC of the peptide alone, and FICb is the MIC of the antibiotic in the presence of peptide/the MIC of the antibiotic alone. Drug interactions were defined as follows: synergy, FICI ≤ 0.5; additive effect, 0.5 < FICI ≤ 1; and indifference, 1 < FICI ≤ 2 ([Hollander et al., 1998]; [Yoon et al., 2004]). The results were recorded in at least three independent experiments, and the median FICI values were used in the analysis.

[2] = cited from earlier work
Description: Supplement Table_1.docx, table 1: Table S1 Biological characteristics and antibacterial activities of the Trp-containing antimicrobial peptides (32) | column: Hemolysis (μM)

[3] = tested on: MRPA0108 strain; conditions: previous study, ref Han et al., 2020; cited from earlier work
Description: Supplement Table_1.docx, table 1: Table S1 Biological characteristics and antibacterial activities of the Trp-containing antimicrobial peptides (32) | column: MIC(μM)

[4] = tested on: rhamnolipid production in MRPA0108; test: Rhamnolipid production, orcinol method; assay type: cell-based, Pseudomonas aeruginosa; conditions: peptide at 1/4 × MIC, 24 h, absorbance 420 nm, vs control, triplicate
Experimental: (§1) The culture supernatant was obtained after centrifugation at 12,000×g for 10 min. (1) LasB elastase activity was measured using elastin-Congo red (ECR) as the substrate, as described by [Pattnaik et al. (2018)]. Briefly, 100 μl of the culture supernatant was added to 900 μl of ECR buffer (100 mM Tris-HCl, 1 mM CaCl2, pH 7.5) containing 10 mg of ECR and then incubated with shaking at 37°C for 18 h. Then, 100 μl of 0.12 M EDTA was added to stop the reaction. The insoluble ECR was removed by centrifugation, and the supernatant absorbance was measured at 495 nm. The optical density (OD) 495 nm/OD 600 nm represents the elastase activity. (2) LasA protease activity was measured as follows ([Pattnaik et al., 2018]): first, the culture supernatant was filtered to remove the bacterial cells, and then 150 μl of sterile-filtered supernatant was added to 2% azocasein (prepared in 50 mM Tris-HCl) and incubated for 4 h at 37°C. Trichloroacetic acid (TCA, 10%) was added to precipitate the undigested substrate. After centrifugation at 10,000 rpm for 10 min, 1 M NaOH was added to the supernatant, and the relative protease activity was measured at OD 440 nm. (3) The pyocyanin assay was based on the absorbance of excreted pyocyanin at 520 nm in an acidic solution ([Kong et al., 2005]). Three milliliters of culture supernatant were mixed with 2 ml of chloroform for 20 min, and then the pyocyanin from the chloroform phase was reextracted using 0.2 M HCl for 15 min to obtain a pink-colored pyocyanin solution. The OD 520 nm was measured to evaluate the change in pyocyanin content. (4) Rhamnolipid detection was carried out as previously described ([Wittgens et al., 2011]). Briefly, 500 μl of culture supernatant was mixed with 500 μl of ethyl acetate and vortexed vigorously for 15 s to extract rhamnolipid. After centrifugation at 10,000×g for 5 min at 4°C, the organic phase containing rhamnolipids was obtained and evaporated at room temperature overnight. The rhamnolipid extract dissolved in ultrapure water was mixed with orcinol reagent (0.19% orcinol in 53% H2SO4) and incubated at 80°C for 30 min. The absorbance was measured at 420 nm. (5) The level of C4-HSL was quantified by GC-MS as previously described ([Guo et al., 2012]).

[5] = tested on: MRPA0108 biofilms; test: Confocal laser scanning microscopy of biofilms (LIVE/DEAD staining); assay type: cell-based, Pseudomonas aeruginosa; conditions: 24 h; for percentage of dead/live cells in biofilm: SYTO9/PI, control 8.7%
Experimental: Biofilms of MRPA0108 were visualized by confocal microscopy. Mid-log growth-phase bacteria were diluted to 1 × 10^7 CFU/ml. […] LB liquid medium and erythromycin were used as negative and positive controls, respectively. After incubation, the supernatant was removed, and the slides were washed and stained in a dark environment for 30 min using a LIVE/DEAD BacLight^TM Bacterial Viability Kit (Invitrogen, Life Technologies, Shanghai, China). The slides were washed three times and imaged with a confocal laser scanning microscope (LSM 710, Carl Zeiss, Germany) with excitation/emission wavelengths of 480/500 and 490/635 nm for SYTO9 and propidium iodide (PI), respectively. SYTO9 was used to indicate live bacteria, and PI was used to mark dead bacteria.

[6] = tested on: pyocyanin production in MRPA0108; test: Pyocyanin production assay; assay type: cell-based, Pseudomonas aeruginosa; conditions: peptide at 1/4 × MIC, 24 h; OD 520 nm; vs untreated control; triplicate
Experimental: The culture supernatant was obtained after centrifugation at 12,000×g for 10 min. (1) LasB elastase activity was measured using elastin-Congo red (ECR) as the substrate, as described by [Pattnaik et al. (2018)]. Briefly, 100 μl of the culture supernatant was added to 900 μl of ECR buffer (100 mM Tris-HCl, 1 mM CaCl2, pH 7.5) containing 10 mg of ECR and then incubated with shaking at 37°C for 18 h. Then, 100 μl of 0.12 M EDTA was added to stop the reaction. The insoluble ECR was removed by centrifugation, and the supernatant absorbance was measured at 495 nm. The optical density (OD) 495 nm/OD 600 nm represents the elastase activity. (2) LasA protease activity was measured as follows ([Pattnaik et al., 2018]): first, the culture supernatant was filtered to remove the bacterial cells, and then 150 μl of sterile-filtered supernatant was added to 2% azocasein (prepared in 50 mM Tris-HCl) and incubated for 4 h at 37°C. […] After centrifugation at 10,000 rpm for 10 min, 1 M NaOH was added to the supernatant, and the relative protease activity was measured at OD 440 nm. (3) The pyocyanin assay was based on the absorbance of excreted pyocyanin at 520 nm in an acidic solution ([Kong et al., 2005]). […] The OD 520 nm was measured to evaluate the change in pyocyanin content. […] The absorbance was measured at 420 nm. (5) The level of C4-HSL was quantified by GC-MS as previously described ([Guo et al., 2012]).

[7] = tested on: LasB elastase of MRPA0108; test: LasB elastase activity, elastin-Congo red method; assay type: cell-based, Pseudomonas aeruginosa; conditions: peptide at 1/4 × MIC, 24 h, 37°C; ECR substrate, OD495/OD600; vs control; triplicate
Experimental: as §1, with “The rhamnolipid extract dissolved in ultrapure water was mixed with orcinol reagent (0.19% orcinol in 53% H2SO4) and incubated at 80°C for 30 min.” left out

Substance	FICI in combination with ceftazidime [1]	FICI in combination with piperacillin [1]	Hemolysis ([2]; as previously reported, ref Bi et al., 2013) [µM]	MIC [3] [µM]	inhibition of rhamnolipid production [4] [%]	FICI in combination with levofloxacin [1]	average biofilm thickness ([5]; after treatment with low concentrations of peptide (1 × MIC or 2 × MIC), 37°C, control biofilm 6 μm)	percentage of dead/live cells in biofilm ([5]; peptide at 1 × MIC) [%]	percentage of dead/live cells in biofilm ([5]; peptide at 2 × MIC) [%]	reduction of pyocyanin production [6] [%]	decrease of LasB elastase activity [7] [%]	Hemolysis [2] [µM]
IKKILSKIKKWLK-NH2 [L11W]	0.25	0.28–0.49 and 0.34	> 500	25	24.3							
IKKIWSKIKKLLK-NH2 [L5W]	0.23	0.37		12.5	40.7	0.62	1.5–2.5 μm	21.4	32.5	69.4	24.1	> 500
IKKWWSKIKKLLK-NH2 [I4WL5W]	0.43	0.68		12.5	37.5	1.12						> 500
WKKIWSKIKKLLK-NH2 [I1WL5W]	0.37	0.59		12.5	38.8	0.75						> 500
